Data: ChEMBL document CHEMBL4837187, “Antimicrobial Benzyltetrahydroisoquinoline-Derived Alkaloids from the Leaves of Doryphora aromatica” (2021)

Key:
Assay type in all cases: functional
[1] = tested on: Mycolicibacterium smegmatis; assay: Antimicrobial activity against Mycobacterium smegmatis MC2 155 ATCC […] assessed as microbial growth inhibition incubated for 16 hrs under aerobic condition by microplate reader assay
[2] = tested on: Mycobacterium tuberculosis; assay: Antimicrobial activity against Mycobacterium tuberculosis MC2 6220 BSL2MIC assessed as microbial growth inhibition incubated for 16 hrs under aerobic condition by microplate reader assay
[3] = tested on: Mycobacterium tuberculosis; assay: Antimicrobial activity against Mycobacterium tuberculosis H37Rv assessed as microbial growth inhibition incubated for 16 hrs under aerobic condition by microplate reader assay
Escherichia coli = assay: Antimicrobial activity against Escherichia coli assessed as microbial growth inhibition incubated for 16 hrs under aerobic condition by microplate reader assay
Staphylococcus aureus [4] = assay: Antimicrobial activity against Staphylococcus aureus assessed as microbial growth inhibition incubated for 16 hrs under aerobic condition by microplate reader assay
Staphylococcus aureus [5] = assay: Antimicrobial activity against methicillin-resistant Staphylococcus aureus clinical isolate 1 assessed as microbial growth inhibition incubated for 16 hrs under aerobic condition by microplate reader assay
Staphylococcus aureus [6] = assay: Antimicrobial activity against methicillin-resistant Staphylococcus aureus clinical isolate 2 assessed as microbial growth inhibition incubated for 16 hrs under aerobic condition by microplate reader assay
Staphylococcus aureus [7] = assay: Antimicrobial activity against methicillin-resistant Staphylococcus aureus clinical isolate 3 assessed as microbial growth inhibition incubated for 16 hrs under aerobic condition by microplate reader assay
Staphylococcus aureus [8] = assay: Antimicrobial activity against methicillin-resistant Staphylococcus aureus clinical isolate 4 assessed as microbial growth inhibition incubated for 16 hrs under aerobic condition by microplate reader assay
Staphylococcus aureus [9] = assay: Antimicrobial activity against methicillin-resistant Staphylococcus aureus clinical isolate 5 assessed as microbial growth inhibition incubated for 16 hrs under aerobic condition by microplate reader assay
[10] = tested on: Mycobacterium tuberculosis; assay: Antimicrobial activity against Mycobacterium tuberculosis MC2 6220 BSL2 assessed as microbial growth inhibition at 6.25 uM incubated for 16 hrs under aerobic condition by microplate reader assay relative to control; conditions: read-out: GI

## COc1cc2c(cc1OC)[C@@H](Cc1ccc(Oc3cc(Cc4c5cc(OC)c(OC)cc5cc[n+]4C)ccc3OC)cc1)N(C)CC2
[1]
  MIC: 39.4 µM
[2]
  MIC: 12.5 µM
[3]
  MIC: > 100 µM
Escherichia coli
  MIC: 158 µM
Staphylococcus aureus [4]
  MIC: 39.4 µM
Staphylococcus aureus [5]
  MIC: 39.4 µM
Staphylococcus aureus [6]
  MIC: 39.4 µM
Staphylococcus aureus [7]
  MIC: 19.7 µM
Staphylococcus aureus [8]
  MIC: 39.4 µM
Staphylococcus aureus [9]
  MIC: 19.7 µM
[10]
  inhibition of growth at 6.25 µM: 70%

## COc1cc2cc[n+](C)c(Cc3ccc(Oc4cc(Cc5c6cc(OC)c(OC)cc6cc[n+]5C)ccc4O)cc3)c2cc1OC
[1]
  MIC: > 100 µM
Escherichia coli
  MIC: > 100 µM
Staphylococcus aureus [4]
  MIC: > 100 µM

## COc1cc2cc[n+](C)c(Cc3ccc(OC)c(Oc4ccc(C=O)cc4)c3)c2cc1OC
[1]
  MIC: > 100 µM
Escherichia coli
  MIC: > 100 µM
Staphylococcus aureus [4]
  MIC: > 100 µM

## COc1cc2cc[n+](C)c(O)c2cc1OC
[1]
  MIC: > 100 µM
Escherichia coli
  MIC: > 100 µM
Staphylococcus aureus [4]
  MIC: > 100 µM

## COc1cc2cc[n+](C)c(Cc3ccc(Oc4cc(Cc5c6cc(OC)c(OC)cc6cc[n+]5C)ccc4OC)cc3)c2cc1OC
[1]
  MIC: 158 µM
Escherichia coli
  MIC: 39.6 µM
Staphylococcus aureus [4]
  MIC: 9.9 µM
Staphylococcus aureus [5]
  MIC: 9.9 µM
Staphylococcus aureus [6]
  MIC: 39.6 µM
Staphylococcus aureus [7]
  MIC: 39.6 µM
Staphylococcus aureus [8]
  MIC: 9.9 µM
Staphylococcus aureus [9]
  MIC: 9.9 µM
